Key:
[1] = biological target: GDP-bound KRAS protein (aa 1-169), containing both G12D and C118A amino acid substitutions (Homo sapiens (Human), UniProt P01116, C118A/G12D); assay: KRAS G12D Coupled Nucleotide Exchange Assay; format: biochemical; conditions: read-out: KRAS G12D Coupled Exchange IC50
Procedure: KRAS G12D Coupled Nucleotide Exchange Assay
Following compound pre-incubation, purified SOS protein (aa 564-1049) and GTP (Roche 10106399001) were added to the assay wells and incubated for an additional 30 min. To determine the extent of inhibition of SOS-mediated nucleotide exchange, purified GST-tagged cRAF (aa 1-149), nickel chelate AlphaLISA acceptor beads (PerkinElmer AL108R), and AlphaScreen glutathione donor beads (PerkinElmer 6765302) were added to the assay wells and incubated for 10 minutes. The assay plates were then read on a PerkinElmer EnVision Multilabel Reader, using AlphaScreen® technology, and data were analyzed using a 4-parameter logistic model to calculate IC50 values.

[2] = biological target: His-tagged KRAS G12D protein (Homo sapiens (Human), UniProt P01116, G12D); assay: KRAS G12D TR-FRET Assay; format: binding; conditions: read-out: KRAS G12D Binding IC50
Sequence of His-tagged KRAS G12D protein (P01116 other isoform, or with tags, fused parts or gaps G12D): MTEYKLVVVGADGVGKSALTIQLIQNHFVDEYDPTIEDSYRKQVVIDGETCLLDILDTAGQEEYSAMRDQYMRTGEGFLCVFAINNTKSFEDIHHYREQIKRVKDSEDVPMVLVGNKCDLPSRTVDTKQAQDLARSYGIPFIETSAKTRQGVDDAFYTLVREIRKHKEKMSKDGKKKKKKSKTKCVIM
Procedure: Compounds of interest were prepared in a dose-response titration in DMSO, and 80 nL were added via Labcyte Echo to each well of a 384-well plate (Perkin Elmer 6008280). The His-tagged KRAS G12D protein (Amgen) was diluted to 20 nM in Assay Buffer (20 mM HEPES, pH 7.4, 10 mM MgCl2, 50 mM NaCl, 0.1% BSA, 0.01% Tween-20, 10 μM GDP) and 2 μL was added to the appropriate wells of the 384-well plate. The plate was incubated for 30 minutes at room temperature. Biotinylated KRPep-2d substrate (Amgen) was diluted to 20 nM in Assay Buffer and 2 μL was added to all wells and incubated for 1 hour at room temperature. Detection Reagent (0.4 nM LANCE Eu-W1024 Anti-6×His (Perkin Elmer AD0401), 5 nM streptavidin-d2 (Cisbio 610SADLA)) was prepared in Assay Buffer, then 4 μL was added to the plate and incubated for 1 hour at room temperature. Plates were read using PerkinElmer EnVision (ex: 320 nm, em1: 665 nm, em2: 615 nm) and em1/em2 data was used to generate curve fits using a 4-parameter logistic model to calculate IC50 values.

Sequence of GDP-bound KRAS protein (aa 1-169), containing both G12D and C118A amino acid substitutions (P01116 other isoform, or with tags, fused parts or gaps G12D/C118A): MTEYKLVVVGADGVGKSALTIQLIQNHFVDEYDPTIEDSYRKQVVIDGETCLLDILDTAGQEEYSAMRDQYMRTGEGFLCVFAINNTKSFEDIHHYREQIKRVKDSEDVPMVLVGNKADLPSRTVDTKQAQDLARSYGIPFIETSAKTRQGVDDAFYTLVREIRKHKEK

| Structure (SMILES) | IC50 [1] [nM] | IC50 [2] [nM] |
| --- | --- | --- |
| O=C1CCCCc2c(Cl)cc3[nH]ncc3c2-c2ncc3c(nc(OC[C@@]45CCCN4C[C@H](F)C5)nc3c2F)N2C[C@H](O)C[C@@H](C2)N1 (racemic) [Example 276, (17S,19R)-9-chloro-30-fluoro-24-(((2R,7aS)-2-fluorotetrahydro-1H-pyrrolo[1,2-a]pyrrol-7a(5H)-yl)methoxy)-19-hydroxy-5,6,16,21,23,25,29-heptaazahexacyclo[24.3.1.1~17,21~.0~2,10~.0~3,7~.0~22,27~]hentriaconta-1(30),2,4,7,9,22,24,26,28-nonaen-15-one] | 153 | 498 |
| C[C@@]12CCCN(C1)c1nc(OC[C@@]34CCCN3C[C@H](F)C4)nc3c(F)c(ncc13)-c1cccc3cccc(c13)CCCOC(=O)O2 [Example 121] | 422 | 508 |
| Cc1cc2[nH]ncc2c2c1CCCCC(=O)OC1CN(CC(F)(F)C1)c1nc(OC[C@@]34CCCN3C[C@H](F)C4)nc3c(F)c-2ncc13 (mixture of isomers) [Example 81] | 212 | 279 |
| Fc1c2ncc3c(nc(OC[C@@]45CCCN4C[C@H](F)C5)nc13)N1CCC[C@@H](C1)c1coc(n1)CCCc1c(Cl)cc3[nH]ncc3c1-2 [Example 245, (18S)-9-chloro-31-fluoro-25-(((2R,7aS)-2-fluorotetrahydro-1H-pyrrolo[1,2-a]pyrrol-7a(5H)-yl)methoxy)-15-oxa-5,6,22,24,26,30,33-heptaazaheptacyclo[25.3.1.1~14,17~.1~18,22~.0~2,10~.0~3,7~.0~23,28~]tritriaconta-1(31),2,4,7,9,14(33),16,23,25,27,29-undecaene] | 344 | 583 |
| Cc1cc2[nH]ncc2c2c1CC/C=C/CO[C@@H]1CCCN(C1)c1nc(OC[C@@]34CCCN3C[C@H](F)C4)nc3c(F)c-2ncc13 [Example 134] | 59 | 56 |
| O=C1CCCc2cccc3cccc(c23)-c2ncc3c(nc(OC[C@@]45CCCN4C[C@H](F)C5)nc3c2F)N2CCC[C@H](C2)O1 [Example 29, (15R)-31-Fluoro-8-(((2R,7aS)-2-fluorotetrahydro-1H-pyrrolo[1,2-a]pyrrol-7a(5H)-yl)methoxy)-16-oxa-3,7,9,11-tetraazahexacyclo[19.7.1.1˜2,6˜.1˜11,15˜.0˜5,10˜.0˜25,29˜]hentriaconta-1(28),2(31),3,5,7,9,21,23,25(29),26-decaen-17-one bis(2,2,2-trifluoroacetate)] | 513 | 443 |
| OC1CCCCc2c(Cl)cc3[nH]ncc3c2-c2ncc3c(nc(OC[C@@]45CCCN4C[C@H](F)C5)nc3c2F)N2CCOCC(C1)C2 (stereo partly drawn) [Example 235] | 125 | 240 |

More lines, in order of falling IC50 [2], values ahead:

| IC50 [1] [nM] | IC50 [2] [nM] | Structure (SMILES) |
| --- | --- | --- |
| 5980 | 8070 | Fc1c2ncc3c(nc(OC[C@@]45CCCN4C[C@H](F)C5)nc13)N1CCOC[C@@H](C1)c1cnn(n1)CCCc1c(Cl)cc3[nH]ncc3c1-2 [Example 297, (1S)-10-chloro-33-fluoro-24-(((2R,7aS)-2-fluorotetrahydro-1H-pyrrolo[1,2-a]pyrrol-7a(5H)-yl)methoxy)-30-oxa-4,5,13,14,19,23,25,27,34-nonaazaheptacyclo[25.4.1.1~2,5~.1~18,22~.0~9,17~.0~12,16~.0~21,26~]tetratriaconta-2(34),3,9,11,14,16,18(33),19,21,23,25-undecaene] |
| 2100 | 3810 | C[C@]12CCCN(C1)c1nc(OC[C@@]34CCCN3C[C@H](F)C4)nc3c(F)c(ncc13)-c1cccc3ccc(F)c(c13)CCOC(=O)N2 [Example 78, (15S)-22,31-difluoro-8-(((2R,7aS)-2-fluorotetrahydro-1H-pyrrolo[1,2-a]pyrrol-7a(5H)-yl)methoxy)-15-methyl-18-oxa-3,7,9,11,16-pentaazahexacyclo[19.7.1.1~2,6~.1~11,15~.0~5,10~.0~25,29~]hentriaconta-1(29),2(31),3,5,7,9,21,23,25,27-decaen-17-one] |
| 1080 | 2250 | Fc1c2ncc3c(nc(OC[C@@]45CCCN4C[C@H](F)C5)nc13)N1CCCC[C@@H](C1)c1cnn(n1)CCCc1c(Cl)cc3[nH]ncc3c1-2 [Example 295, (1S)-10-chloro-33-fluoro-24-(((2R,7aS)-2-fluorotetrahydro-1H-pyrrolo[1,2-a]pyrrol-7a(5H)-yl)methoxy)-4,5,13,14,19,23,25,27,34-nonaazaheptacyclo[25.4.1.1~2,5~.1~18,22~.0~9,17~.0~12,16~.0~21,26~]tetratriaconta-2(34),3,9,11,14,16,18(33),19,21,23,25-undecaene] |
| 783 | 1230 | O=C1OCC[C@H]2CCc3cc4[nH]ncc4c(c32)-c2ncc3c(nc(OC[C@@]45CCCN4C[C@H](F)C5)nc3c2F)N2CCOC[C@H](C2)O1 [Example 368, (16S,22R)-34-fluoro-8-(((2R,7aS)-2-fluorotetrahydro-1H-pyrrolo[1,2-a]pyrrol-7a(5H)-yl)methoxy)-14,17,19-trioxa-3,7,9,11,28,29-hexaazaheptacyclo[20.9.1.1~2,6~.1~11,16~.0~5,10~.0~25,32~.0~27,31~]tetratriaconta-1(31),2(34),3,5,7,9,25(32),26,29-nonaen-18-one] |
| 376 | 1230 | CN1C(=O)OCCCc2c(Cl)cc3[nH]ncc3c2-c2ncc3c(nc(OC[C@@]45CCCN4C[C@H](F)C5)nc3c2F)N2C[C@H](O)C[C@H]1C2 [Example 287, (17S,19R)-9-chloro-30-fluoro-24-(((2R,7aS)-2-fluorotetrahydro-1H-pyrrolo[1,2-a]pyrrol-7a(5H)-yl)methoxy)-19-hydroxy-16-methyl-14-oxa-5,6,16,21,23,25,29-heptaazahexacyclo[24.3.1.1~17,21~.0~2,10~.0~3,7~.0~22,27~]hentriaconta-1(30),2,4,7,9,22,24,26,28-nonaen-15-one] |
| 631 | 938 | C[C@@]12COCCN(C1)c1nc(OC[C@@]34CCCN3C[C@H](F)C4)nc3c(F)c(ncc13)-c1c3c(cc4[nH]ncc14)CC[C@@H]3CCOC(=O)O2 [Example 366, (16S,22R)-34-fluoro-8-(((2R,7aS)-2-fluorotetrahydro-1H-pyrrolo[1,2-a]pyrrol-7a(5H)-yl)methoxy)-16-methyl-14,17,19-trioxa-3,7,9,11,28,29-hexaazaheptacyclo[20.9.1.1~2,6~.1~11,16~.0~5,10~.0~25,32~.0~27,31~]tetratriaconta-1(31),2(34),3,5,7,9,25(32),26,29-nonaen-18-one] |
| 481 | 651 | O=C1CCCCc2c(Cl)cccc2-c2ncc3c(nc(OC[C@@]45CCCN4C[C@H](F)C5)nc3c2F)N2CCC[C@H](C2)N1 [Example 59, (23R)-15-chloro-28-fluoro-4-(((2R,7aS)-2-fluorotetrahydro-1H-pyrrolo[1,2-a]pyrrol-7a(5H)-yl)methoxy)-1,3,5,9,22-pentaazapentacyclo[21.3.1.1~6,10~.0~2,7~.0~11,16~]octacosa-2,4,6,8,10(28),11,13,15-octaen-21-one] |
| 292 | 302 | O=C1CCCCc2cccc3cc(O)cc(c23)-c2ncc3c(nc(OC[C@@]45CCCN4C[C@H](F)C5)nc3c2F)N2CCCN1CC2 [Example 9, 32-Fluoro-4-(((2R,7aS)-2-fluorotetrahydro-1H-pyrrolo[1,2-a]pyrrol-7a(5H)-yl)methoxy)-13-hydroxy-1,3,5,9,25-pentaazahexacyclo[23.3.2.1˜6,10˜.1˜11,15˜.0˜2,7˜.0˜19,31˜]dotriaconta-2,4,6(32),7,9,11(31),12,14,16,18-decaen-24-one bis(2,2,2-trifluoroacetate)] |
| 178 | 262 | Fc1c2ncc3c(nc(OC[C@@]45CCCN4C[C@H](F)C5)nc13)N1CCC[C@H](C1)Oc1nccc(n1)CCc1c(Cl)cc3[nH]ncc3c1-2 [Example 257, (19R)-9-chloro-32-fluoro-26-(((2R,7aS)-2-fluorotetrahydro-1H-pyrrolo[1,2-a]pyrrol-7a(5H)-yl)methoxy)-18-oxa-5,6,16,23,25,27,31,34-octaazaheptacyclo[26.3.1.1~13,17~.1~19,23~.0~2,10~.0~3,7~.0~24,29~]tetratriaconta-1(32),2,4,7,9,13(34),14,16,24,26,28,30-dodecaene] |
| 81 | 98 | CN1C(=O)CCCCc2c(Cl)cc3[nH]ncc3c2-c2ncc3c(nc(OC[C@@]45CCCN4C[C@H](F)C5)nc3c2F)N2CCOCC1C2 (mixture of isomers) [Example 64] |
| 30 | 27 | Cc1cc2[nH]ncc2c2c1CCCCO[C@@H](C)[C@@H]1CN(CCO1)c1nc(OC[C@@]34CCCN3C[C@H](F)C4)nc3c(F)c-2ncc13 [Example 244, (16S,17S)-30-fluoro-24-(((2R,7aS)-2-fluorotetrahydro-1H-pyrrolo[1,2-a]pyrrol-7a(5H)-yl)methoxy)-9,16-dimethyl-15,18-dioxa-5,6,21,23,25,29-hexaazahexacyclo[24.3.1.1~17,21~.0~2,10~.0~3,7~.0~22,27~]hentriaconta-1(30),2,4,7,9,22,24,26,28-nonaene] |

Reference: patent US20240294551A1 (AMGEN INC., priority 2022, published 2024)
